Measurements: paper PMC9820559, “Investigation of the Fuzzy Complex between RSV Nucleoprotein and Phosphoprotein to Optimize an Inhibition Assay by Fluorescence Polarization” (International Journal of Molecular Sciences, 2022)
“And” between values parts separate entries of the source, which are not always exact repeats. Equal entries are not always repeated. Where two headings read alike, the source gives them in different places. Square brackets hold non-standard residues; d marks the D form. Ends that are not written are not given here. * marks the point of attachment. FITC = O=C1OC2(c3ccc(O)cc3Oc3cc(O)ccc32)c2ccc(NC(=S)*)cc21; pS = N[C@@H](COP(=O)(O)O)C(=O)O

Columns and labels:
RSV NNTD = target: T1, RSV NNTD (Human respiratory syncytial virus A, UniProt P03418); experiment: Fluorescence polarization inhibition of NNTD binding to F11
T1 construct: The N-terminal domain NNTD (residues 31–252), containing a C-terminal 6x histidine tag; 6xHis (C); made in house; host or cells: E. coli BL21(DE3)
Experimental: We therefore tested competition between M76 and F11 by FP. Measurements were done in salt-free buffer to take advantage of the higher F11-NNTD affinity. The concentration of NNTD was set to 5 µM to benefit from a high range of FP values, comprised between FPmin and ~80% FPmax. […] We fitted the data with a Hill equation (Equation (12)), assuming that the maximal inhibition of F11 binding to the canonical site by M76 was obtained at saturation.
Fluorescence polarization measurements were carried out on a Paradigm Detection Platform (Beckman Coulter, Brea, CA, USA) operating with a microplate reader, a fluorescein detection cartridge (excitation range 485/20 nm, emission range 535/25 nm for both parallel and perpendicular components) and the SpectraMax Pro 6.1 software (Molecular Devices, San Jose, CA, USA). […] Mixing was done using the corresponding plate reader option. […] Data were recorded in top reading mode. […] Fluorescence polarization (FP) in mFP units was determined from the parallel (I∥) and perpendicular (I⊥) components of the emitted light according to Equation (4). A grating factor G of 1.2 was determined using 1 nM fluorescein in 1 mM NaOH and assuming a theoretical FP of 27 mFP [48]. Background signal was measured from wells containing only buffer, and the mean value was subtracted from each I∥ and I⊥ component. […]

RSV N-RNA complex = target: T2, RSV N-RNA complex (Human respiratory syncytial virus A, UniProt P03418); experiment: Fluorescence polarization inhibition of N-RNA binding to fluorescent probes
T2 construct: Full-length N was produced by co-expression with the C-terminal domain of RSV P protein in E. coli BL21(DE3); made in house; host or cells: E. coli BL21(DE3), co-transformed with pET-N and pGEX-P(161–241)
Description: We next performed inhibition experiments for the F11-(N-RNA) complex by M76 (Figure 4B). FP values decreased with increasing competitor concentration. At saturation, FP nearly reached the value of free F11, showing that the F11 peptide could be nearly completely displaced. Since the same concentration range was used for NNTD and N-RNA, poor solubility of M76 can be ruled out to explain the saturation observed before complete displacement of F11 in the presence NNTD (Figure 3C). This reinforces the hypothesis of a second binding site on NNTD, outside the canonical P-binding site. […]
To probe the potency of M76 as an inhibitor, we carried out competition experiments with the M76 molecule and several BCNn peptides. M76 was able to displace the fluorescent probes from N-RNA, and inhibition curves were obtained (Figure 8E). Since we used different N concentrations to have similar dynamic ranges of FP for the series of fluorescent peptides, we cannot directly compare M76 IC50s. However, Kis may be compared.
Fluorescence polarization measurements were carried out on a Paradigm Detection Platform (Beckman Coulter, Brea, CA, USA) operating with a microplate reader, a fluorescein detection cartridge (excitation range 485/20 nm, emission range 535/25 nm for both parallel and perpendicular components) and the SpectraMax Pro 6.1 software (Molecular Devices, San Jose, CA, USA). Samples were placed in polystyrene black flat bottom 96-well microplates (Cellstar, Greiner bio-one, Frickenhausen, Germany) with 20 µL final volume in each well. If not stated otherwise, the final concentration of fluorescent ligands was 200 nM. The buffer was either 20 mM MES pH 6.5, salt-free or with 250 mM NaCl, or 20 mM Tris pH 8.0 salt-free or with 100 mM NaCl, supplemented with 0.01% Brij-35. Mixing was done using the corresponding plate reader option. The temperature was set to 20 °C. Data were recorded in top reading mode. Measurements were done in triplicate and after an incubation time of 30 min, if not indicated otherwise. Fluorescence polarization (FP) in mFP units was determined from the parallel (I∥) and perpendicular (I⊥) components of the emitted light according to Equation (4). A grating factor G of 1.2 was determined using 1 nM fluorescein in 1 mM NaOH and assuming a theoretical FP of 27 mFP [48]. Background signal was measured from wells containing only buffer, and the mean value was subtracted from each I∥ and I⊥ component. (4) FP (mP)=1000×(I∥−G∗I⊥)/(I∥+G×I⊥)
To assess inhibition of a complex between a fluorescent probe and N protein by peptides or the M76 molecule, the concentration of N was set to work with an FP range comprised between FPmin and ~80% FPmax. Peptides were added from 1 or 2 mM stock solution in water at neutral pH. M76 was added from 10 or 20 mM stock solutions in ethanol or in DMSO. […] Inhibition data were fitted with Origin 7, and in parallel with the Excel solver module. All data were compatible with an absence of cooperativity. FPmax and FPmin were fitted, and the maximal inhibition %i,max was set to 100%. (11) %i=100×[1−(FP−FPmin)/(FPmax−FPmin)] (12) %i=%i,max×[inhibitor]/[inhibitor]+IC50
Inhibition constants Ki were calculated on the IC50-to-Ki converter for a protein-ligand-inhibitor system (https://bioinfo-abcc.ncifcrf.gov/IC50_Ki_Converter/index.php, accessed on 24 August 2022), assuming a competitive mechanism (Equation (13)). This tool takes into account the free concentrations of protein and ligand. (13) Ki=(IC50−[protein]/2)/([peptide]/Kd+1)

[1] = target: T3, RSV nucleoprotein N-terminal domain NNTD (residues 31–252) (human respiratory syncytial virus, UniProt P03418 31-252); experiment: fluorescence polarisation; 200 nM F11, NNTD varied; 20 mM MES pH 6.5 without salt, 0.01% Brij-35; 20 °C; single site plus a linear contribution; details: both partners purified
T3 construct: N-terminal domain of human RSV nucleoprotein N, residues 31-252; 15N-labelled for the NMR titration; also called N(31–252); 15N-NNTD; source: E. coli BL21(DE3), pET-N(31–252), purified as described previously [21]
T3 sequence (looked up): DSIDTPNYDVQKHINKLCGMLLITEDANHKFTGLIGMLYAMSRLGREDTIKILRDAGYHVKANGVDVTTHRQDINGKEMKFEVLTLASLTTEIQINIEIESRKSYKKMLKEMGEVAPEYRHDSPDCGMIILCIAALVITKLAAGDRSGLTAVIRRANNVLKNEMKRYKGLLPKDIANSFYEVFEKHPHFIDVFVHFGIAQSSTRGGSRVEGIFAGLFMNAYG

[2] = target: T3, RSV nucleoprotein N-terminal domain …; experiment: fluorescence polarisation; 200 nM F11, NNTD 0.1–120 µM; 20 mM MES pH 6.5, 250 mM NaCl, 0.01% Brij-35; 20 °C; single site model; saturation not reached; details: both partners purified
[3] = target: T4, RSV N-RNA complex (full-length N protein in ring-shaped complexes with bacterial RNA) (human respiratory syncytial virus, UniProt P03418 1-391); experiment: fluorescence polarisation; competition: unlabeled pP11 varied against 200 nM BCN_(11EE) on 1 µM N-RNA; Tris pH 8 buffer; Hill equation; Ki from the IC50-to-Ki server; details: both partners purified
T4 construct: human RSV nucleoprotein N, full length; concentrations are of N protomer; also called N-RNA rings; source: in lysate for the co-purification; purified (glutathione-Sepharose, thrombin, Superdex 200) as N-RNA complex; copies: 10-11
T4 sequence (looked up): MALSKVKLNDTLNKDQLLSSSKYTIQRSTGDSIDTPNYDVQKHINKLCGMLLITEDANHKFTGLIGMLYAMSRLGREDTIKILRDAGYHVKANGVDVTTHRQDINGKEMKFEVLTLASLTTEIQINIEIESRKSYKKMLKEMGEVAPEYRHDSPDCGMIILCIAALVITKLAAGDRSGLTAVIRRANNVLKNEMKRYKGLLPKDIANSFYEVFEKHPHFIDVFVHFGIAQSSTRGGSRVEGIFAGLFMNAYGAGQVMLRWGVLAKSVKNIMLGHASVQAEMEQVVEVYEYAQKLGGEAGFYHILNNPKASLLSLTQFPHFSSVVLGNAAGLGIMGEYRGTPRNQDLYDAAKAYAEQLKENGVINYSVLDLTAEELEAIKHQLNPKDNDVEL

`O=C(O)c1cc(C(=O)O)n(Cc2ccc(Cl)cc2Cl)n1` [M76, 1-(2,4-dichlorobenzyl)-1H-pyrazole-3,5-dicarboxylic acid] showed an IC50 (RSV NNTD) of 28 ± 5 µM, a Ki (RSV NNTD) of 2.5 µM and an IC50 (RSV N-RNA complex; fluorescent probe F7E 200 nM, 10 µM N-RNA, Tris pH 8 without salt, read-out: IC50) of 48 ± 5 µM. For the same molecule, the Ki (RSV N-RNA complex; fluorescent probe F7E 200 nM, 10 µM N-RNA, from IC50 and Kd 2.5 µM, read-out: Ki) was 8 µM, the IC50 (RSV N-RNA complex; fluorescent probe F11 200 nM, 10 µM N-RNA, Tris pH 8 without salt, read-out: IC50) was 12.6 µM and 13 µM and the Ki (RSV N-RNA complex; fluorescent probe F11 200 nM, 10 µM N-RNA, from IC50 and Kd 7.6 µM with IC50-to-Ki server, read-out: Ki) was 3 µM. It also gave an IC50 (RSV N-RNA complex; fluorescent probe fluorescein 1 200 nM, 20 µM N-RNA, read-out: M76 IC50) of 27 ± 2 µM, a Ki (RSV N-RNA complex; fluorescent probe fluorescein 1, 20 µM N-RNA, from IC50 and Kd, read-out: M76 Ki) of 13 µM and an IC50 (RSV N-RNA complex; fluorescent probe fluorescein ethyl ester 3 200 nM, 20 µM N-RNA, read-out: M76 IC50) of 65 ± 9 µM. The Ki (RSV N-RNA complex; fluorescent probe fluorescein ethyl ester 3, 20 µM N-RNA, from IC50 and Kd, read-out: M76 Ki) was 50 µM, the IC50 (RSV N-RNA complex; fluorescent probe fluorescein methyl ester 2 200 nM, 20 µM N-RNA, read-out: M76 IC50) was 46 ± 7 µM and the Ki (RSV N-RNA complex; fluorescent probe fluorescein methyl ester 2, 20 µM N-RNA, from IC50 and Kd, read-out: M76 Ki) was 32 µM. The IC50 (RSV N-RNA complex; probe BCN5E 200 nM, [N-RNA] 2 µM, Tris pH 8, read-out: Fitted IC50) was 7 ± 0.6 µM, the IC50 (RSV N-RNA complex; probe BCN5E 200 nM, [N-RNA] 20 µM, Tris pH 8, read-out: Fitted IC50) was 26 ± 2 µM and the Ki (RSV N-RNA complex; probe BCN5E, [N-RNA] 2 µM, IC50-to-Ki server, read-out: Ki) was 4.8 µM. It also gave a Ki (RSV N-RNA complex; probe BCN5E, [N-RNA] 20 µM, IC50-to-Ki server, read-out: Ki) of 3.6 µM, a Ki (RSV N-RNA complex; probe BCN5E, [N-RNA] 2 and 20 µM, read-out: Ki values for inhibition of BCN5E) of 3.6 to 4.8 µM and an IC50 (RSV N-RNA complex; probe BCN6E 200 nM, [N-RNA] 2 µM, Tris pH 8, read-out: Fitted IC50) of 2.7 ± 0.2 µM. The IC50 (RSV N-RNA complex; probe BCN6E 200 nM, [N-RNA] 10 µM, Tris pH 8, read-out: Fitted IC50) was 14 ± 1 µM, the Ki (RSV N-RNA complex; probe BCN6E, [N-RNA] 2 µM, IC50-to-Ki server, read-out: Ki) was 0.7 µM and the Ki (RSV N-RNA complex; probe BCN6E, [N-RNA] 10 µM, IC50-to-Ki server, read-out: Ki) was 1.1 µM. It also gave an IC50 (RSV N-RNA complex; probe BCN8E 200 nM, [N-RNA] 2 µM, Tris pH 8, read-out: Fitted IC50) of 4.5 ± 0.4 µM, an IC50 (RSV N-RNA complex; probe BCN8E 200 nM, [N-RNA] 5 µM, Tris pH 8, read-out: Fitted IC50) of 13 ± 2 µM and a Ki (RSV N-RNA complex; probe BCN8E, [N-RNA] 2 µM, IC50-to-Ki server, read-out: Ki) of 1.3 µM. It also gave a Ki (RSV N-RNA complex; probe BCN8E, [N-RNA] 5 µM, IC50-to-Ki server, read-out: Ki) of 2 µM, an IC50 (RSV N-RNA complex; probe BCN10EE 200 nM, [N-RNA] 2 µM, Tris pH 8, read-out: Fitted IC50) of 8.9 ± 0.6 µM and an IC50 (RSV N-RNA complex; probe BCN10EE 200 nM, inhibitor M76, [N-RNA] 1 µM, Tris pH 8, read-out: Fitted IC50) of 8.5 ± 0.6 µM. The Ki (RSV N-RNA complex; probe BCN10EE, [N-RNA] 2 µM, IC50-to-Ki server, read-out: Ki) was 0.5 µM, the Ki (RSV N-RNA complex; probe BCN10EE, inhibitor M76, [N-RNA] 1 µM, IC50-to-Ki server, read-out: Ki) was 1.1 µM and the IC50 (RSV N-RNA complex; probe BCN11SE 200 nM, [N-RNA] 5 µM, Tris pH 8, read-out: Fitted IC50) was 17 ± 2 µM. For the same molecule, the Ki (RSV N-RNA complex; probe BCN11SE, [N-RNA] 5 µM, IC50-to-Ki server, read-out: Ki) was 1.8 µM.

B1: F11 (fluorescein-5-thiourea-labelled RSV P11 peptide) (peptide)
peptide: {FITC}-DSDNDLSLEDF
notes: C-terminal 11 residues of RSV phosphoprotein P; also called F_(11SS); FTU-P11; source: bought P11 peptide (GeneCust), FITC coupled in solution, HPLC purified
B1 was tested, and the Kd [1] was 0.6 ± 0.1 µM and the Kd [2] was 90 ± 15 µM.

B2: pP11 peptide (RSV P C-terminal 11-mer with O-phosphoserines at 232 and 237) (peptide)
peptide: D[pS]DNDL[pS]LEDF
notes: C-terminal 11 residues of RSV phosphoprotein P with Ser232 and Ser237 as O-phosphoserines; source: bought: GeneCust (synthetic peptide, >95% purity)
B2 showed an IC50 [3] of 6.9 ± 1.2 µM.
